Experimental data taken from patent US8609667B2, “E-type phenyl acrylic ester compounds containing substituted anilino pyrimidine group and uses thereof” (Sinochem Corporation, priority 2009, dated 2013).
Where two headings read alike, the source gives them in different places.

Legend:
Assay type in all cases: in vivo
[1] = tested on: adults of Tetranychus cinnabarinus; test: Acaricidal activity against adults in greenhouse (spray on broadbean shoots, mortality after 72 hrs); conditions: for control against adults of Tetranychus cinnabarinus: spray, 72 hrs; for mortality at 0.625 µg/mL / mortality at 1.25 µg/mL / mortality at 2.5 µg/mL / mortality at 5 µg/mL / mortality at 10 µg/mL / mortality at 40 µg/mL: Tetranychus cinnabarinus, read-out: mortalities of adults of Tetranychus cinnabarinus (%)
Protocol: (§1) The activity determinations of compounds of the present invention against adults, nymphs and eggs of Tetranychus cinnabarinus were carried out in greenhouse by the following procedures:
The activity determination against adults in greenhouse: the compounds were weighed and dissolved in acetone to obtain mother liquid, and then the mother liquid was diluted to required concentration with placed running water containing 0.1% of Tween 80. Broadbean shoots with two true leaves were used to inoculate adults of Tetranychus cinnabarinus which were counted, spraying treatment was performed by portable sprayer (DeVilbiss Atomizer M163), 3 replicates were set for each treatment. After treatment the broadbean shoots were maintained in standard observation room. Scores were conducted and mortalities were calculated after 72 hrs.

[2] = tested on: nymphs of Tetranychus cinnabarinus; test: Acaricidal activity against nymphs in greenhouse (spray, mortality after 72 hrs)
Protocol: as §1
The activity determination against nymphs in greenhouse: broadbean shoots with two true leaves in pot were taken, ten healthy female adults of Tetranychus cinnabarinus were inoculated to the leaves, the adults were removed after 24 hrs and the eggs were cultivated into nymphs after 7-10 days. The nymphs were counted and then sprayed. 3 replicates were set for each treatment. And then were maintained in standard observation room. Scores were conducted and mortalities were calculated after 72 hrs.

[3] = tested on: eggs of Tetranychus cinnabarinus; test: Activity against eggs in greenhouse (hatching inhibition rate); conditions: for hatching inhibition rate against eggs of Tetranychus cinnabarinus: dose 10 mg/L; for inhibition at 0.625 µg/mL / inhibition at 2.5 µg/mL / inhibition at 10 µg/mL: Tetranychus cinnabarinus, read-out: hatching inhibition rate against eggs (%)
Protocol: as §1
The activity determination against eggs in greenhouse: Broadbean shoots in pot with one true leaf retained were taken, ten healthy female adults of Tetranychus cinnabarinus were inoculated to the leaves, the adults were removed after 24 hrs and the eggs were counted and then sprayed. The treatment of test compounds and spaying method were the same as that of the activity determination in greenhouse against adults. Once eggs of blank control were all hatched after 5 days, unhatched eggs in each treatment were investigated and the hatching inhibition rate were calculated.

citrus red mite = test: Field trial against citrus red mite (Guilin, China); conditions: 48 mg/L (24% SC)
Protocol: Field Trial Against Citrus Red Mite (Guilin, China)
The trial was carried out in a 2-year-old Shatang orange orchard in Chaotian town lingchuan county guilin city, trifoliate orange trees were selected as stocks, the intervals between two plants was 1.5×2.5 m, the average height was 1.45 m and the crown width was 1.30 m. Two trees were selected in each plot, with random arrangement and 4 replications. Compound 9 (15% SC) was set at two different doses (100 mg/L and 25 mg/L), and spirodiclofen (24% SC) was set at one dose (48 mg/L). Matabi Supergreen 16 Knapsack Sprayer 16 Liter was used to spray evenly with 2 L of spaying volume for each plant. The plants were treated once on 30 Oct. 2009, at that time, adults, nymphs and eggs of citrus red mite all existed, with adults/eggs=1/1.27. During the day the plants were treated, and the weather was good with the average temperature at 23° C. The first three days after treatment were all clear days. The number of mites was investigated before treatment and on the 1st, 3rd, 10th, 15th, 20th and 30th day after treatment respectively. Two trees of each plot were investigated according to the five directions of the tree crown (east, south, west, north and central), 5 leaves in each direction were investigated to calculate the number of living mites, with 50 leaves each plot. The decline rate of mite population and corrected efficacy were calculated according to formulas below: The decline rate of mite population(%)=[(the average number of mite on each leaf before treatment−the average number of mite on each leaf after treatment)/the average number of mite on each leaf before treatment]×100. Corrected efficacy(%)=[(the decline rate of mite population in treated area−the decline rate of mite population in untreated area)/(100−the decline rate of mite population in untreated area)]×100.

CO/C=C(/C(=O)OC)c1ccccc1COc1cc(C(F)(F)F)nc(Nc2ccccc2F)n1 [Compound 2]
control against adults of Tetranychus cinnabarinus ([1]; dose 10 mg/L): 100% | control against adults of Tetranychus cinnabarinus ([1]; dose 40 mg/L): 100% | control against adults of Tetranychus cinnabarinus ([1]; dose 100 mg/L): 100%

CO/C=C(/C(=O)OC)c1ccccc1COc1cc(C(F)(F)F)nc(Nc2cccc(C)c2)n1 [Compound 6]
control against adults of Tetranychus cinnabarinus ([1]; dose 40 mg/L): 100% | control against adults of Tetranychus cinnabarinus ([1]; dose 100 mg/L): 100%

CO/C=C(/C(=O)OC)c1ccccc1COc1cc(C(F)(F)F)nc(Nc2ccc(F)cc2F)n1 [Compound 8]
control against adults of Tetranychus cinnabarinus ([1]; dose 5 mg/L): 100% | control against adults of Tetranychus cinnabarinus ([1]; dose 10 mg/L): 100% | control against adults of Tetranychus cinnabarinus ([1]; dose 40 mg/L): 100% | control against adults of Tetranychus cinnabarinus ([1]; dose 100 mg/L): 100% | control against nymphs of Tetranychus cinnabarinus ([2]; dose 0.63 mg/L): more than 75% | control against nymphs of Tetranychus cinnabarinus ([2]; dose 2.5 mg/L): more than 95% | hatching inhibition rate against eggs (%) ([3]; 0.625 mg/L, Table 8): 25% | hatching inhibition rate against eggs (%) ([3]; 2.5 mg/L, Table 8): 90% | hatching inhibition rate against eggs (%) ([3]; 10 mg/L, Table 8): 100% | hatching inhibition rate against eggs of Tetranychus cinnabarinus [3]: 100%

CO/C=C(/C(=O)OC)c1ccccc1COc1cc(C(F)(F)F)nc(Nc2ccc(Cl)cc2F)n1 [Compound 12]
control against adults of Tetranychus cinnabarinus ([1]; dose 5 mg/L): 100% | control against adults of Tetranychus cinnabarinus ([1]; dose 10 mg/L): 100% | control against adults of Tetranychus cinnabarinus ([1]; dose 40 mg/L): 100% | control against adults of Tetranychus cinnabarinus ([1]; dose 100 mg/L): 100%

CO/C=C(/C(=O)OC)c1ccccc1COc1cc(C(F)(F)F)nc(Nc2ccc(F)c(Cl)c2)n1 [Compound 13]
control against adults of Tetranychus cinnabarinus ([1]; dose 100 mg/L): 100%

CO/C=C(/C(=O)OC)c1ccccc1COc1cc(C(F)(F)F)nc(Nc2ccc(F)c(F)c2F)n1 [Compound 15]
control against adults of Tetranychus cinnabarinus ([1]; dose 0.31 mg/L): more than 75% | control against adults of Tetranychus cinnabarinus ([1]; dose 0.625 mg/L): 95% | control against adults of Tetranychus cinnabarinus ([1]; dose 5 mg/L): 100% | control against adults of Tetranychus cinnabarinus ([1]; dose 10 mg/L): 100% | control against adults of Tetranychus cinnabarinus ([1]; dose 40 mg/L): 100% | control against adults of Tetranychus cinnabarinus ([1]; dose 100 mg/L): 100% | control against nymphs of Tetranychus cinnabarinus ([2]; dose 0.63 mg/L): 100% | control against nymphs of Tetranychus cinnabarinus ([2]; dose 2.5 mg/L): 100% | hatching inhibition rate against eggs of Tetranychus cinnabarinus [3]: 100%

CO/C=C(/C(=O)OC)c1ccccc1COc1cc(C(F)(F)F)nc(Nc2ccc(Cl)c(Cl)c2Cl)n1 [Compound 16]
control against adults of Tetranychus cinnabarinus ([1]; dose 5 mg/L): 100% | control against adults of Tetranychus cinnabarinus ([1]; dose 10 mg/L): 100% | control against adults of Tetranychus cinnabarinus ([1]; dose 40 mg/L): 100% | control against adults of Tetranychus cinnabarinus ([1]; dose 100 mg/L): 100% | hatching inhibition rate against eggs of Tetranychus cinnabarinus [3]: 100%

CO/C=C(/C(=O)OC)c1ccccc1COc1cc(C(F)(F)F)nc(Nc2ccc(Cl)c(C)c2Cl)n1 [Compound 17]
control against adults of Tetranychus cinnabarinus ([1]; dose 5 mg/L): 100% | control against adults of Tetranychus cinnabarinus ([1]; dose 10 mg/L): 100% | control against adults of Tetranychus cinnabarinus ([1]; dose 40 mg/L): 100% | control against adults of Tetranychus cinnabarinus ([1]; dose 100 mg/L): 100%

CO/C=C(/C(=O)OC)c1ccccc1COc1cc(C(F)(F)F)nc(Nc2cc(Cl)ccc2Cl)n1 [Compound 18]
control against adults of Tetranychus cinnabarinus ([1]; dose 40 mg/L): 100% | control against adults of Tetranychus cinnabarinus ([1]; dose 100 mg/L): 100%

CO/C=C(/C(=O)OC)c1ccccc1COc1nc(Nc2ccc(F)cc2F)nc(C(F)(F)F)c1C [Compound 79]
control against adults of Tetranychus cinnabarinus ([1]; dose 10 mg/L): 100% | control against adults of Tetranychus cinnabarinus ([1]; dose 40 mg/L): 100% | control against adults of Tetranychus cinnabarinus ([1]; dose 100 mg/L): 100%

CO/C=C(/C(=O)OC)c1ccccc1COc1nc(Nc2ccc(F)c(F)c2F)nc(C(F)(F)F)c1C [Compound 80]
control against adults of Tetranychus cinnabarinus ([1]; dose 40 mg/L): 100% | control against adults of Tetranychus cinnabarinus ([1]; dose 100 mg/L): 100%

CO/C=C(/C(=O)OC)c1ccccc1COc1nc(Nc2ccccc2Cl)nc(C(F)(F)F)c1C [Compound 82]
control against adults of Tetranychus cinnabarinus ([1]; dose 100 mg/L): 100%

CO/C=C(/C(=O)OC)c1ccccc1COc1nc(Nc2ccc(Cl)cc2)nc(C(F)(F)F)c1C [Compound 83]
control against adults of Tetranychus cinnabarinus ([1]; dose 100 mg/L): 100%

CO/C=C(/C(=O)OC)c1ccccc1COc1nc(Nc2ccccc2)nc(C(F)(F)F)c1C [Compound 84]
control against adults of Tetranychus cinnabarinus ([1]; dose 100 mg/L): 100%

CO/C=C(/C(=O)OC)c1ccccc1COc1nc(Nc2ccccc2)nc(C(F)(F)F)c1Cl [Compound 85]
control against adults of Tetranychus cinnabarinus ([1]; dose 100 mg/L): 100%

CO/C=C(/C(=O)OC)c1ccccc1COc1cc(C(F)(F)F)nc(Nc2ccccc2)n1 [Contrast A, reference compound]
mortality at 0.625 µg/mL ([1]; 0.625 mg/L, Table 7): 0% | mortality at 1.25 µg/mL ([1]; 1.25 mg/L, Table 7): 10% | mortality at 2.5 µg/mL ([1]; 2.5 mg/L, Table 7): 30% | mortality at 5 µg/mL ([1]; 5 mg/L, Table 7): 60% | mortality at 10 µg/mL ([1]; 10 mg/L, Table 7): 90% | mortality at 40 µg/mL ([1]; 40 mg/L, Table 7): 100% | inhibition at 0.625 µg/mL ([3]; 0.625 mg/L, Table 8): 0% | inhibition at 2.5 µg/mL ([3]; 2.5 mg/L, Table 8): 10% | inhibition at 10 µg/mL ([3]; 10 mg/L, Table 8): 100%

CO/C=C(/C(=O)OC)c1ccccc1COc1cc(C(F)(F)F)nc(N(C)C)n1 [Contrast B, reference compound]
mortality at 10 µg/mL ([1]; 10 mg/L, Table 7): 0% | mortality at 40 µg/mL ([1]; 40 mg/L, Table 7): 0%

CO/C=C(/C(=O)OC)c1ccccc1COc1cc(C(F)(F)F)nc(Nc2cccc(Cl)c2Cl)n1 [Contrast C]
inhibition at 0.625 µg/mL ([3]; 0.625 mg/L, Table 8): 0% | inhibition at 2.5 µg/mL ([3]; 2.5 mg/L, Table 8): 10% | inhibition at 10 µg/mL ([3]; 10 mg/L, Table 8): 100%

CO/C=C(/C(=O)OC)c1ccccc1COc1cc(C(F)(F)F)nc(OC(C)C)n1 [Fluacrypyrim, reference compound]
mortality at 0.625 µg/mL [1]: 0% | mortality at 1.25 µg/mL [1]: 30% | mortality at 2.5 µg/mL [1]: 65% | mortality at 5 µg/mL [1]: 95% | mortality at 10 µg/mL [1]: 100% | mortality at 40 µg/mL [1]: 100% | inhibition at 0.625 µg/mL [3]: 0% | inhibition at 2.5 µg/mL [3]: 10% | inhibition at 10 µg/mL [3]: 95%

CCC(C)(C)C(=O)OC1=C(c2ccc(Cl)cc2Cl)C(=O)OC12CCCCC2 [Spirodiclofen, reference compound]
hatching inhibition rate against eggs (%) ([3]; 0.625 mg/L, Table 8): 0% | hatching inhibition rate against eggs (%) ([3]; 2.5 mg/L, Table 8): 70% | hatching inhibition rate against eggs (%) ([3]; 10 mg/L, Table 8): 100% | Corrected efficacy (%) (citrus red mite; the 1st day after treatment): 59% | Corrected efficacy (%) (citrus red mite; the 3rd day after treatment): 72% | Corrected efficacy (%) (citrus red mite; the 10th day after treatment): 75% | Corrected efficacy (%) (citrus red mite; the 15th day after treatment): 76% | Corrected efficacy (%) (citrus red mite; the 20th day after treatment): 83% | Corrected efficacy (%) (citrus red mite; the 30th day after treatment): 82%
